Experimental data: publication PMC8767786 (Nature structural & molecular biology, 2021)

Target: T1, TRPM5 (Danio rerio, UniProt S5UH55)
T1 sequence (S5UH55 1-1165): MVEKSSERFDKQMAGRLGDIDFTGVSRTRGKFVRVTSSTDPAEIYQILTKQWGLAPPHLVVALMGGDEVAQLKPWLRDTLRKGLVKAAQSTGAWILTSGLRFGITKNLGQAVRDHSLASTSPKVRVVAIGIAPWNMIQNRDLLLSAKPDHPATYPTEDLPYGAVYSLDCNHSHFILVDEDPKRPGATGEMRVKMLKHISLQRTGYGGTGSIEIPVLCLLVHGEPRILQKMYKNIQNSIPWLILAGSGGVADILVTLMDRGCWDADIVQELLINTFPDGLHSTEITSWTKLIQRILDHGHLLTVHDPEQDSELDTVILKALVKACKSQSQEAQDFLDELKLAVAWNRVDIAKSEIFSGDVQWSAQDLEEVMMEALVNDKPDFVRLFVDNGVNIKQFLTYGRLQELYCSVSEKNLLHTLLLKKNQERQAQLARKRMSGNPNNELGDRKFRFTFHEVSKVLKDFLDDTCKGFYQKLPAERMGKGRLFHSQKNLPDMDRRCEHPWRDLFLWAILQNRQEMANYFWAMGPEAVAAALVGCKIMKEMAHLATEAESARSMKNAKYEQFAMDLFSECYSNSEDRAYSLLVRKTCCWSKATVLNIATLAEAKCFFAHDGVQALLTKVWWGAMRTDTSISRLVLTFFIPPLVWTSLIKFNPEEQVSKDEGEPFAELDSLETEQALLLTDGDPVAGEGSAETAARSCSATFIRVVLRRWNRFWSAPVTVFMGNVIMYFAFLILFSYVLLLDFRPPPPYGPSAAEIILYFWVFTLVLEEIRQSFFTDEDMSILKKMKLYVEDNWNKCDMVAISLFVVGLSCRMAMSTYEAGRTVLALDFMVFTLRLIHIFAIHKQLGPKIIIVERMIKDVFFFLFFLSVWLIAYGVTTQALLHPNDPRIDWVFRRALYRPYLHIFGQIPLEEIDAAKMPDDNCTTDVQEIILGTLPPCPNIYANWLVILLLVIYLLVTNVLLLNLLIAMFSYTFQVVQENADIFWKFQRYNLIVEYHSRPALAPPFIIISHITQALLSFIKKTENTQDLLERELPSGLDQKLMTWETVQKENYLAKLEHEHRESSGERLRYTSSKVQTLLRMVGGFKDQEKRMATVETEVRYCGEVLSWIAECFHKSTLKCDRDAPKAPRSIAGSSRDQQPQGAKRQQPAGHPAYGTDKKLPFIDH
Assay: cryo-EM structure
Format: cell-based

IC50: ~2.4 nM
Structure (SMILES): COc1ccc(C=NNC(=O)Cc2cccc3ccccc23)cc1OC [NDNA, N’-(3,4-dimethoxybenzylidene)-2-(naphthalen-1-yl)acetohydrazide]
